Assay results as given in ChEMBL document CHEMBL1201862, “PubChem BioAssay data set” (2004).
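A five-concentration, 48-hour dose response in 96-well plates underlies each endpoint, interpolated linearly between surrounding concentrations. Here, GI50 denotes the concentration required for 50% inhibition of growth.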 The source made the active and inactive calls. Rule as the data show it: active = GI50 up to about 1.1 µM and inactive = higher.

Experiments:
Assay in all cases: NCI anticancer screen, dose series, 48 h
[1] = test system: UACC-257
[2] = test system: HCT-15
[3] = test system: COLO 205
[4] = test system: OVCAR-8
[5] = test system: M14
[6] = test system: PC-3
[7] = test system: SK-MEL-28
[8] = test system: RXF 393
[9] = test system: HCT-116
[10] = test system: NCI/ADR-RES
[11] = test system: K562
[12] = test system: SK-OV-3
[13] = test system: MDA-MB-231
[14] = test system: ACHN
[15] = test system: EKVX
[16] = test system: LOX IMVI
[17] = test system: IGROV-1
[18] = test system: Malme-3M
[19] = test system: CCRF-CEM
[20] = test system: SR

Q: For `COc1ccc(S(=O)(=O)c2nnc(S(=O)(=O)Cc3ccccc3)s2)cc1`, which GI50 [1] is on record?
A: 14.7 µM (inactive)

Q: What about the GI50 [2] of the same molecule?
A: 25.7 µM

Q: What about the GI50 [3] of the same molecule?
A: 13 µM (inactive)

Q: What about the GI50 [4] of the same molecule?
A: 21.9 µM (inactive)

Q: And the GI50 [5]?
A: 17.5 µM (inactive)

Q: What about the GI50 [6] of the same molecule?
A: 21.1 µM (inactive)

Q: What about the GI50 [7] of the same molecule?
A: 20.5 µM (inactive)

Q: And the GI50 [8]?
A: 16.2 µM (inactive)

Q: And the GI50 [9]?
A: 20.4 µM (inactive)

Q: What about the GI50 [10] of the same molecule?
A: 43.7 µM (inactive)

Q: And the GI50 [11]?
A: 5.92 µM (inactive)

Q: What about the GI50 [12] of the same molecule?
A: 22.5 µM (inactive)

Q: And the GI50 [13]?
A: 17.5 µM (inactive)

Q: What about the GI50 [14] of the same molecule?
A: 12.7 µM (inactive)

Q: What about the GI50 [15] of the same molecule?
A: 22.4 µM (inactive)

Q: Which GI50 [16] does the source give for `NCCCN(CCCCN(CCCN)Cc1ccc2ccccc2c1)Cc1ccc2ccccc2c1` here?
A: 2.1 µM (inactive)

Q: What about the GI50 [1] of the same molecule?
A: 2.02 µM (inactive)

Q: What about the GI50 [2] of the same molecule?
A: 3.58 µM

Q: And the GI50 [3]?
A: 2.55 µM (inactive)

Q: And the GI50 [4]?
A: 1.82 µM (inactive)

Q: What about the GI50 [5] of the same molecule?
A: 1.97 µM (inactive)

Q: And the GI50 [17]?
A: 1.82 µM (inactive)

Q: What about the GI50 [7] of the same molecule?
A: 1.92 µM (inactive)

Q: What about the GI50 [8] of the same molecule?
A: 1.95 µM (inactive)

Q: And the GI50 [9]?
A: 2.54 µM (inactive)

Q: And the GI50 [10]?
A: 18.7 µM (inactive)

Q: And the GI50 [11]?
A: 3.51 µM (inactive)

Q: What about the GI50 [12] of the same molecule?
A: 1.86 µM (inactive)

Q: And the GI50 [13]?
A: 3.18 µM (inactive)

Q: What about the GI50 [18] of the same molecule?
A: 1.76 µM (inactive)

Q: And the GI50 [19]?
A: 27 µM (inactive)

Q: And the GI50 [14]?
A: 1.9 µM (inactive)

Q: What about the GI50 [15] of the same molecule?
A: 1.77 µM (inactive)

Q: Which results are given for `CCOc1ccc(NC(=S)N/C=C(/C(C)=O)C(=O)Nc2ccccc2C)cc1`?
A: GI50 [16]: > 100 µM (inactive); GI50 [1]: > 100 µM (inactive); GI50 [2]: > 100 µM; GI50 [3]: > 100 µM (inactive); GI50 [4]: > 100 µM (inactive); GI50 [5]: > 100 µM (inactive); GI50 [6]: > 100 µM (inactive); GI50 [17]: > 100 µM (inactive); GI50 [8]: > 100 µM (inactive); GI50 [9]: > 100 µM (inactive); GI50 [10]: > 100 µM (inactive); GI50 [11]: > 100 µM (inactive); GI50 [12]: > 100 µM (inactive); GI50 [13]: > 100 µM (inactive); GI50 [14]: > 100 µM (inactive); GI50 [15]: > 100 µM (inactive)

Q: With `COc1cccc(C2c3cc4c(cc3OC(NNS(=O)(=O)c3ccc(C)cc3)C2C)OCO4)c1O` (stereo not drawn) as the molecule, how does the GI50 [16] read?
A: 26.1 µM (inactive)

Q: And the GI50 [1]?
A: 19.7 µM (inactive)

Q: And the GI50 [2]?
A: 23.5 µM

Q: What about the GI50 [3] of the same molecule?
A: 17.8 µM (inactive)

Q: And the GI50 [4]?
A: 1.69 µM (inactive)

Q: And the GI50 [5]?
A: 24.7 µM (inactive)

Q: What about the GI50 [6] of the same molecule?
A: 12.4 µM (inactive)

Q: What about the GI50 [17] of the same molecule?
A: 26.9 µM (inactive)

Q: And the GI50 [7]?
A: 25.5 µM (inactive)

Q: What about the GI50 [8] of the same molecule?
A: 21.3 µM (inactive)

Q: What about the GI50 [9] of the same molecule?
A: 15.3 µM (inactive)

Q: And the GI50 [11]?
A: 10.2 µM (inactive)

Q: What about the GI50 [12] of the same molecule?
A: 38.8 µM (inactive)

Q: What about the GI50 [20] of the same molecule?
A: 6.79 µM (inactive)

Q: What about the GI50 [13] of the same molecule?
A: 20.4 µM (inactive)

Q: What about the GI50 [18] of the same molecule?
A: 23.8 µM (inactive)

Q: And the GI50 [19]?
A: 10 µM (inactive)

Q: And the GI50 [14]?
A: 23.6 µM (inactive)

Q: What about the GI50 [15] of the same molecule?
A: 20.2 µM (inactive)

Q: Which GI50 [16] does the source give for `Cc1c(N2C(=O)/C(=C/c3ccc(N(CCC#N)CCC#N)cc3)N=C2c2ccccc2)c(=O)n(-c2ccccc2)n1C` here?
A: > 100 µM (inactive)

Q: What about the GI50 [1] of the same molecule?
A: > 100 µM (inactive)

Q: What about the GI50 [2] of the same molecule?
A: 70 µM

Q: What about the GI50 [3] of the same molecule?
A: > 100 µM (inactive)

Q: And the GI50 [4]?
A: > 100 µM (inactive)

Q: What about the GI50 [5] of the same molecule?
A: > 100 µM (inactive)

Q: And the GI50 [17]?
A: > 100 µM (inactive)

Q: And the GI50 [7]?
A: > 100 µM (inactive)

Q: What about the GI50 [8] of the same molecule?
A: > 100 µM (inactive)

Q: What about the GI50 [9] of the same molecule?
A: > 100 µM (inactive)

Q: What about the GI50 [10] of the same molecule?
A: > 100 µM (inactive)

Q: What about the GI50 [12] of the same molecule?
A: > 100 µM (inactive)

Q: What about the GI50 [20] of the same molecule?
A: > 100 µM (inactive)

Q: And the GI50 [13]?
A: > 100 µM (inactive)

Q: What about the GI50 [18] of the same molecule?
A: > 100 µM (inactive)

Q: And the GI50 [19]?
A: 59.6 µM (inactive)

Q: And the GI50 [15]?
A: > 100 µM (inactive)

Q: What does the source list for `CCOP(=O)(/C=C/n1cnc2c(=O)n(C(C)=O)c(N)nc21)OCC`?
A: GI50 [16]: > 100 µM (inactive); GI50 [1]: > 100 µM (inactive); GI50 [2]: > 100 µM; GI50 [3]: > 100 µM (inactive); GI50 [4]: > 100 µM (inactive); GI50 [5]: > 100 µM (inactive); GI50 [6]: > 100 µM (inactive); GI50 [17]: > 100 µM (inactive); GI50 [7]: > 100 µM (inactive); GI50 [8]: > 100 µM (inactive); GI50 [9]: > 100 µM (inactive); GI50 [10]: > 100 µM (inactive); GI50 [11]: > 100 µM (inactive); GI50 [12]: > 100 µM (inactive); GI50 [13]: > 100 µM (inactive); GI50 [19]: > 100 µM (inactive); GI50 [14]: > 100 µM (inactive); GI50 [15]: > 100 µM (inactive)
